As usually defined, the CC50 is the concentration giving 50% cytotoxicity. Low values mean greater toxicity to the cells, high ones lower toxicity to the cells. For orientation: IC50 means the concentration that inhibits the measured activity by half. High values mean weaker potency in that assay, low ones greater potency in that assay.

The test system of assay [1] is Hepatitis B virus. Briefly: Cytotoxic activity was determined against Hepatitis B virus (HBV) at 10 uM using HepG2-derived 2.2.15 cell lines. The settings on record: HepG2 2.2.15. The format is functional.
Assay [2] concerns Hepatitis B virus. As to the kind of experiment: Inhibitory activity was determined against Hepatitis B virus (HBV) at 10 uM using HepG2-derived 2.2.15 cell lines. The format is functional, organism-based.

`COc1ccc(CCNP(=O)(O)OC[C@H]2O[C@@H](n3ccc(=O)[nH]c3=O)[C@H](OC)[C@@H]2OP(=O)(O)OC[C@H]2O[C@@H](n3cnc4c(N)ncnc43)C[C@@H]2O)cc1OC` displayed a cytotoxic concentration (CC50) with Hepatitis B virus [1] greater than 300 µM. Moreover, the IC50 in the assay with Hepatitis B virus [2] worked out at 4.4 µM.

The molecule `Nc1nc(O)c2ncn([C@H]3C[C@H](O)[C@@H](COP(=O)(O)O[C@@H]4C[C@@H](n5cnc6c(N)ncnc65)O[C@H]4COP(=O)(O)NC4CCCN4)O3)c2n1` (some centres undefined) gave a CC50 in the assay on Hepatitis B virus [1] greater than 300 µM. In the assay on Hepatitis B virus [2], this molecule showed an IC50 of 2.1 µM.
